Test results taken from PMC6707612, “Cyclic-di-GMP binds to histidine kinase RavS to control RavS-RavR phosphotransfer and regulates the bacterial lifestyle transition between virulence and swimming” (PLoS Pathogens, 2019).

Tests used:
Test in all cases: microscale thermophoresis (MST) binding
DHp-CA domain of RavS = DHp-CA domain of RavS (Xanthomonas campestris pv. campestris, UniProt Q8P9A6); conditions: read-out: dissociation constant (Kd)
Procedure: (§1) Fig 6 Arg^656 in the CA domain of RavS is a key residue for c-di-GMP binding. (a, b) c-di-GMP binds to the DHp-CA domain of RavS. PAS-A, PAS-B and DHp-CA in (a), and DHp and CA domains of RavS in (b), were purified and the interaction with c-di-GMP was measured by MST. Each assay was repeated three times. Standard deviations are shown. (c) Molecular docking model of the interaction between c-di-GMP and DHp-CA of RavS. c-di-GMP is shown as a ball-and-stick model and DHp-CA is shown in ribbon representation. (d) Schematic view of the predicted docking site between c-di-GMP and DHp-CA. Potential hydrogen bonds are indicated as blue dashed lines. Autodock software was used to predict the interaction. (e) Effect of amino acid substitutions on RavS–c-di-GMP binding. Ten recombinant proteins of the DHp-CA region, each containing a substitution of a putative essential residue involved in c-di-GMP binding, were used in the MST assay to quantify the Kd value of RavS–c-di-GMP binding. fl-c-di-GMP was used in the MST assay. Each experiment was repeated three times. […] The reactions were terminated with 5× SDS loading buffer and the products were separated by 12% SDS-PAGE, exposed to a phosphor screen and analysed by Typhoon FLA7000. […]
(§2) The interaction between c-di-GMP nucleotides and various proteins was measured by using MST with a fluorescein-labelled c-di-GMP (2′-Fluo-AHC-c-di-GMP, abbreviated as fl-c-di-GMP; 2′-Fluo-AHC-c-di-AMP, fl-c-di-AMP; 2′-Fluo-AHC-cGMP, fl-cGMP; Biolog, Germany). These chemicals contain carboxyfluorescein that has excitation and emission wavelengths of 497 nm and 520 nm, respectively, which can be detected directly by a MST instrument. […] Fluorescence intensity due to thermophoresis was recorded using the blue channel optics of the instrument (λex = 470 ± 15 nm, λem = 520 ± 10 nm) during a 30 s period of infrared laser heating at 80% of the maximum laser power, followed by a 5 s cooling period. […]

CA domain of RavS = CA domain of RavS (Xanthomonas campestris pv. campestris, UniProt Q8P9A6); conditions: read-out: dissociation constant (Kd)
Procedure: as §1, §2

RavS^ΔTrM = biological target: T1, RavS^ΔTrM (Xanthomonas campestris pv. campestris, UniProt Q8P9A6); conditions: 20 nM fluorescein-labelled nucleotide, read-out: dissociation constant (Kd)
T1 sequence (Q8P9A6 47-697): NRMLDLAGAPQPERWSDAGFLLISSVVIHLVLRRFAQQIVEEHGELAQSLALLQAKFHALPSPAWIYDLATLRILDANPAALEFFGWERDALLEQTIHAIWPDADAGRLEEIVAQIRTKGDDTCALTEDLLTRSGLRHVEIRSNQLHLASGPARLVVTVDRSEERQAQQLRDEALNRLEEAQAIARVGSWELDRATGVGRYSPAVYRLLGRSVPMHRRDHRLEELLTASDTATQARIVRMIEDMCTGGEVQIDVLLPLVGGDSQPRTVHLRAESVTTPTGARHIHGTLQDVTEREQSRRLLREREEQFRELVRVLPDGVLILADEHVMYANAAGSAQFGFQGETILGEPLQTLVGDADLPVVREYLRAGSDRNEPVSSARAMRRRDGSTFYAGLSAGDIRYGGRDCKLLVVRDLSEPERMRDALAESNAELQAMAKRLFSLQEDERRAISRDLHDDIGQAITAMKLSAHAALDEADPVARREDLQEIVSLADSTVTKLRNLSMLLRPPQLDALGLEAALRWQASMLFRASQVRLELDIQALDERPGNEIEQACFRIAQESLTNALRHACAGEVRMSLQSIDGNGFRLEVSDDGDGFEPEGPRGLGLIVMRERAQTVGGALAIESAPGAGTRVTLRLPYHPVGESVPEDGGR
Procedure: (a) c-di-GMP enhances RavS-RavR phosphotransfer in vitro. A total of 5 μM RavS^ΔN was autophosphorylated for 15 min by the addition of 10 μCi [γ-^32P]ATP. A total of 15 μM RavR^ΔEAL or RavR^ΔEAL(D496A) was added and incubated for 30 min at 25°C. A total of 100 μM c-di-GMP was added if necessary. The reactions were terminated with 5× SDS loading buffer before autoradiography. The experiment was repeated three times. (b) Time course analyses of the impact of c-di-GMP on the velocity of RavS-RavR phosphotransfer. The autophosphorylation and phosphotransfer reactions were set as mentioned in (a). Various concentrations of c-di-GMP were added to the reactions and isotopic signals (band intensities) of RavS~P were measured after autoradiography. (c–d) c-di-GMP triggered an increase in RavS-RavR phosphotransfer in a dose-dependent manner. (c) Various concentrations of c-di-GMP (0, 5, 10, 15, 30, 50, 75 and 100 μM) were added to the RavS-RavR phosphotransfer reactions. (d) The phosphorylated level of RavS^ΔN~P was quantified by ImageJ and the EC50 value was estimated by Origin 8.5 software. In (b) and (d), the intensity of each data point is the average from three experimental repeats. (e) c-di-GMP triggered increase in RavS-RavR phosphotransfer is highly specific. […] The interaction between RavS^ΔTrM and various nucleotides, including fl-c-di-GMP, fl-cGMP and fl-c-di-AMP, were measured by microscale thermophoresis (MST). A total of 20 nM fluorescein-labelled nucleotides and increasing concentrations of proteins were incubated and measured by MST. The dissociation constant (Kd) was quantified to estimate the binding affinity. […]
The interaction between c-di-GMP nucleotides and various proteins was measured by using MST with a fluorescein-labelled c-di-GMP (2′-Fluo-AHC-c-di-GMP, abbreviated as fl-c-di-GMP; 2′-Fluo-AHC-c-di-AMP, fl-c-di-AMP; 2′-Fluo-AHC-cGMP, fl-cGMP; Biolog, Germany). These chemicals contain carboxyfluorescein that has excitation and emission wavelengths of 497 nm and 520 nm, respectively, which can be detected directly by a MST instrument. […]

Compound `Nc1nc2c(ncn2[C@@H]2O[C@@H]3COP(=O)(O)O[C@H]4[C@@H](OC(=O)NCCCCCCNC(=O)c5ccc6c(c5)C(=O)OC65c6ccc(O)cc6Oc6cc(O)ccc65)[C@H](n5cnc6c(=O)[nH]c(N)nc65)O[C@@H]4COP(=O)(O)O[C@H]3[C@H]2O)c(=O)[nH]1` [fl-c-di-GMP, 2′-Fluo-AHC-c-di-GMP] has a Kd (DHp-CA domain of RavS) of 6.25 ± 0.8 µM, a Kd (CA domain of RavS) of 17.1 ± 3.78 µM and a Kd (RavS^ΔTrM) of 6.06 ± 0.92 µM.
